Test results as given in patent US8404696B2, “Quinazoline-2,4-dione derivative, and medical compositions for the prophylaxis and treatment of cranial nerve disease containing the same” (Shin Poong Pharmaceutical Co., Ltd., priority 2008, dated 2013).
In brackets after ≈: the same amount, converted by molar mass.

Key:
mouse brain cells = test: Inhibitory effect on ROS production in brain cells (DCF-DA, NMDA-induced); assay type: cell-based; details: dose suppressing 50% of production of reactive oxygen compared to control, mouse brain cells; for IC50: 24 h, read-out: ROS inhibitory effect ID50
Method: Oxidative stress was measured to test inhibitory effects on the production of reactive oxygen species (ROS) by using DCF-DA, which is a fluorescent probe. Brain cells were obtained from brain cortex of mouse to prepare cell solution with 2×10^6 cells/ml. Each brain cell was treated with 11 μM of DCF-DA followed by reaction in 37° C., 5% CO2 incubator for an hour. After washing twice, Compound 3 was treated with a concentration of 125 μg/ml and 250 μg/ml. At the same time, 300 μM of NMDA was treated and it was incubated in 37° C., 5% CO2 incubator for 24 hours.
(§1) ROS inhibitory effect of compounds was represented to the dose suppressing 50% of production of reactive oxygen compared to control. […] The activity of superoxide dismutase (SOD) was measured by using a kit acquired in Sigma.

[1] = tested on: mixed culture of nerve cells-glial cells; test: Protecting effect on NMDA-induced nerve cell death (LDH release); assay type: cell-based, ICR mouse; details: 100 μM NMDA, LDH release after 24 hours
Method: Isolation and culture of nerve cells were performed by Choi's method (Choi, D. W. 1985, Neurosci. Lett., 58: 293-297). That is, the cortex was isolated in fetus ICR mouse that was 14 days pregnant, and then single cells were obtained from the tissue using pipette. The cells were aliquoted into 2×10^5/well density in a 24-well plate (Falcon) in which glial cells of cerebral cortex had been cultured in an incubator maintained at 37° C. with 5% CO2 for over 3 weeks. The culture medium was supplemented with MEM (minimum essential medium, Sigma), 2 mM glutamine, 21 mM glucose, 26.5 mM bicarbonate, 10% fetal bovine serum (FBS). In 3-5 days after aliquot, 10 μM Ara-C (cytosine arabinoside) was treated to suppress proliferation of neuroglia. And it was treated with 100 μM NMDA and 1 μg/mL or 2 μg/mL of each sample (compound) to induce the death of nerve cells due to excitable toxicity for 20 minutes, in 12-15 days after aliquot. Because of nerve cell death, lactate dehydrogenase (LDH) accumulated in proportion to the number of dead cells. In 24 hours after drug treatment, the amount of dehydrogenase (LDH) released to outside of cells was measured by using an […] measurement kit (CytoTox 96, Promega). After the reaction was completed, the change of absorbance depending on the amount of LDH was measured by using a microplate spectrophotometer.

thoracic aorta of rats = test: Relaxing effect on thoracic aorta contracted by phenylephrine (organ bath); design: species or system rats of SD species; details: Rattus norvegicus; 67 μg/mL; phenylephrine 0.5 μM; mean n = 3; read-out: Relaxation percentage
From the text: After male rats of SD species (250-300 g) were anesthetized by inhalation of ether, their thoracic aortas were extracted and put into a Krebs buffer (mM; NaCl 118, NaHCO3 27.3, KCl 4.8, MgSO4 1.2, KH2PO4 1.0, CaCl2 1.25, glucose 11.1). 2 mm of aortic ring was made under dissecting microscope and cultured in an organ bath to measure the tension of blood vessels. The organ bath was filled with Krebs buffer and saturated with 95% O2, 5% CO2 to maintain dissolved oxygen and physiological pH. Changing of tension was measured by a tension meter (Hugo-sachs, model K30) and recorded by physiological recorder (Coulbourn polygraph). The length of the blood vessels was increased step by step to make 1.0 g of basal tension for 90 minutes. The equilibrated blood vessel was contracted by phenylephrine (0.5 μM). When the contraction furrow reached equilibrium, compounds were added, followed by observation of relaxation response.

[2] = tested on: superoxide dismutase (SOD); test: Increase of superoxide dismutase (SOD) activity in mouse brain cells; assay type: cell-based; details: 100 μg/ml
Method: as §1

[3] = tested on: pentylentetrazole (PTZ)-induced convulsion; test: Anti-convulsant effect, pentylentetrazole (PTZ) test; assay type: in vivo; details: 10 mg/kg intraperitoneally, PTZ 80 mg/kg subcutaneously; for mortality rate / Induction percentage of convulsion: (animals/total); for mortality rate: negative control 70(17/23); for Induction percentage of convulsion: negative control 100(23/23); for Initiation time of convulsion: negative control 5.0 ± 0.7; for Duration of convulsion: negative control 46.7 ± 3.3
Method: An experiment was performed by the method of Ali et al. (Ali, A. et al. 2006, Pharmacological Reports, 58: 242-245). A 10 mg/kg dose of compound was intraperitoneally administered to identify the anti-convulsant effect and the effect was observed (Table 8). Researching the process of activity was performed by the Anti-epileptic Drug Development Program (ADD) of NIH during development of the anti-convulsant drug. One of the assessed items of anti-convulsant activity in the first step of this program is the pentylentetrazole (PTZ) test. […] After 10 mg/kg of the testing drug was administered, assessment was performed by estimating the initiation time of convulsion, duration until convulsion completely disappeared and mortality rate. It was assessed as having an anti-convulsant effect when a single episode of clonic spasm was not shown over 5 seconds on at least one of the 4 laboratory animals after PTZ administration.

CCOC(=O)N(CCCCNCCCn1c(=O)[nH]c2ccccc2c1=O)CCCn1c(=O)[nH]c2ccccc2c1=O [Compound 5, [3-(2,4-dioxo-1,4-dihydro-2H-quinazolin-3-yl)propyl]-{4-[3-(2,4-dioxo-1,4-dihydro-2H-quinazolin-3-yl)propylamino]butyl}carbamic Acid ethyl ester]
IC50 (mouse brain cells): 24.4 ± 10.5 µg/mL (≈ 43.2 µM)
Inhibitory effect of cell death by NMDA-induced excitable neurotoxicity ([1]; 1 μg/ml compound): 11.4%
Inhibitory effect of cell death by NMDA-induced excitable neurotoxicity ([1]; 2 μg/ml compound): 39.4%
inhibition at 67 µg/mL (thoracic aorta of rats): 19.2%
Increase of SOD activity, compared to control [2]: 2.5 ± 2.8

CC(=O)N(CCCCN(CCCn1c(=O)[nH]c2ccccc2c1=O)Cc1ccccc1)CCCn1c(=O)[nH]c2ccccc2c1=O [Compound 13, N-(4-{benzyl-[3-(2,4-dioxo-1,4-dihydro-2H-quinazolin-3-yl)propyl]amino}butyl)-N-[3-(2,4-dioxo-1,4-dihydro-2H-quinazolin-3-yl)propyl]acetamide]
IC50 (mouse brain cells): 87.3 ± 10.9 µg/mL (≈ 140 µM)
Inhibitory effect of cell death by NMDA-induced excitable neurotoxicity ([1]; 1 μg/ml compound): 17.4%
Inhibitory effect of cell death by NMDA-induced excitable neurotoxicity ([1]; 2 μg/ml compound): 23.0%
inhibition at 67 µg/mL (thoracic aorta of rats): 9.3%
Increase of SOD activity, compared to control [2]: 7.6 ± 2.9

CCOC(=O)N(CCCCN(CCCn1c(=O)[nH]c2ccccc2c1=O)C(C)=O)CCCn1c(=O)[nH]c2ccccc2c1=O [Compound 14, (4-{acetyl-[3-(2,4-dioxo-1,4-dihydro-2H-quinazolin-3-yl)propyl]amino}butyl)-[3-(2,4-dioxo-1,4-dihydro-2H-quinazolin-3-yl)propyl]carbanic Acid ethyl ester]
ROS inhibitory effect ID50 (mouse brain cells): 90.1 ± 12.2 µg/mL
Inhibitory effect of cell death by NMDA-induced excitable neurotoxicity ([1]; 1 μg/ml compound): 18.9%
Inhibitory effect of cell death by NMDA-induced excitable neurotoxicity ([1]; 2 μg/ml compound): 26.9%
Increase of SOD activity, compared to control [2]: 2.7 ± 1.0
mortality rate [3]: 0(0/6) %
Induction percentage of convulsion [3]: 100(6/6) %
Initiation time of convulsion [3]: 8.5 ± 1.8 min
Duration of convulsion [3]: 2.9 ± 2.1 min

CC(=O)N(CCCCn1c(=O)[nH]c2ccccc2c1=O)CCCn1c(=O)[nH]c2ccccc2c1=O [Compound 22, N-[4-(2,4-dioxo-1,4-dihydro-2H-quinazolin-3-yl)butyl]-N-[3-(2,4-dioxo-1,4-dihydro-2H-quinazolin-3-yl)propyl]acetamide]
IC50 (mouse brain cells): 172 ± 23.6 µg/mL (≈ 361 µM)
Inhibitory effect of cell death by NMDA-induced excitable neurotoxicity ([1]; 1 μg/ml compound): 17.0%
Inhibitory effect of cell death by NMDA-induced excitable neurotoxicity ([1]; 2 μg/ml compound): 14.0%
Increase of SOD activity, compared to control [2]: 3.7 ± 0.8
mortality rate [3]: 0(0/6) %
Induction percentage of convulsion [3]: 83(5/6) %
Initiation time of convulsion [3]: 15.2 ± 9.0 min
Duration of convulsion [3]: 7.0 ± 3.2 min

O=c1[nH]c2ccccc2c(=O)n1CCCNCCCNCCCn1c(=O)[nH]c2ccccc2c1=O [Compound 24, 3-(3-{3-[3-(2,4-dioxo-1,4-dihydro-2H-quinazolin-3-yl)propylamino]propylamino}propyl)-1H-quinazoline-2,4dione]
IC50 (mouse brain cells): 122 ± 32.4 µg/mL (≈ 256 µM)
Inhibitory effect of cell death by NMDA-induced excitable neurotoxicity ([1]; 1 μg/ml compound): 27.4%
Inhibitory effect of cell death by NMDA-induced excitable neurotoxicity ([1]; 2 μg/ml compound): 30.3%
Increase of SOD activity, compared to control [2]: 6.9 ± 3.8
mortality rate [3]: 50(3/3) %
Induction percentage of convulsion [3]: 100(6/6) %
Initiation time of convulsion [3]: 6.1 ± 1.7 min
Duration of convulsion [3]: 35.7 ± 84 min

Cn1c(=O)n(CCCNCCCCNCCCn2c(=O)c3ccccc3n(C)c2=O)c(=O)c2ccccc21 [Compound 27, 1-methyl-3-(3-{4-[3-(1-methyl-2,4-dioxo-1,4-dihydro-2H-quinazolin-3-yl)propylamino]butylamino}propyl)-1H-quinazoline-2,4-dione]
IC50 (mouse brain cells): 21.9 ± 16.1 µg/mL (≈ 42.1 µM)
Inhibitory effect of cell death by NMDA-induced excitable neurotoxicity ([1]; 1 μg/ml compound): 33.7%
Inhibitory effect of cell death by NMDA-induced excitable neurotoxicity ([1]; 2 μg/ml compound): 36.0%
Increase of SOD activity, compared to control [2]: 2.4 ± 7.8
mortality rate [3]: 50(3/6) %
Induction percentage of convulsion [3]: 100(6/6) %
Initiation time of convulsion [3]: 8.4 ± 2.6 min
Duration of convulsion [3]: 35.8 ± 9.8 min

O=c1[nH]c2ccccc2c(=O)n1CCCNCCNCCCn1c(=O)[nH]c2ccccc2c1=O [Compound 29, 3-(3-{2-[3-(2,4-dioxo-1,4-dihydro-2H-quinazolin-3-yl)propylamino]ethylamino}propyl)-1H-quinazoline-2,4-dione]
IC50 (mouse brain cells): 10.1 ± 17.3 µg/mL (≈ 21.7 µM)
Inhibitory effect of cell death by NMDA-induced excitable neurotoxicity ([1]; 1 μg/ml compound): 8.5%
Inhibitory effect of cell death by NMDA-induced excitable neurotoxicity ([1]; 2 μg/ml compound): 29.5%
Increase of SOD activity, compared to control [2]: 3.0 ± 1.1
mortality rate [3]: 17(1/6) %
Induction percentage of convulsion [3]: 83(5/6) %
Initiation time of convulsion [3]: 18.2 ± 9.1 min
Duration of convulsion [3]: 30.3 ± 11.1 min

CCCCCCn1c(=O)n(CCCN(CCCCN(CCCn2c(=O)c3ccccc3n(CCCCCC)c2=O)C(=O)OC(C)(C)C)C(=O)OC(C)(C)C)c(=O)c2ccccc21 [Compound 32, (4-{tert-butoxycarbonyl-[3-(1-hexyl-2,4-dioxo-1,4-dihydro-2H-quinazolin-3-yl)propyl]amino}butyl)-[3-(1-hexyl-2,4-dioxo-1,4-dihydro-2H-quinazolin-3-yl)propyl]carbamic acid tert-butyl ester]
IC50 (mouse brain cells): 14.4 ± 7.6 µg/mL (≈ 16.7 µM)
Inhibitory effect of cell death by NMDA-induced excitable neurotoxicity ([1]; 1 μg/ml compound): 32.0%
Inhibitory effect of cell death by NMDA-induced excitable neurotoxicity ([1]; 2 μg/ml compound): 29.8%
Increase of SOD activity, compared to control [2]: 0.3 ± 7.1
mortality rate [3]: 50(3/6) %
Induction percentage of convulsion [3]: 100(5/6) %
Initiation time of convulsion [3]: 11.3 ± 4.5 min
Duration of convulsion [3]: 29.8 ± 12.0 min

CCCCCCn1c(=O)n(CCCNCCCCNCCCn2c(=O)c3ccccc3n(CCCCCC)c2=O)c(=O)c2ccccc21 [Compound 33, 1-hexyl-3-(3-{4-[3-(1-hexyl-2,4-dioxo-1,4-dihydro-2H-quinazolin-3-yl)propylamino]butylamino}propyl)-1H-quinazoline-2,4-dione]
IC50 (mouse brain cells): 173 ± 19.7 µg/mL (≈ 261 µM)
Inhibitory effect of cell death by NMDA-induced excitable neurotoxicity ([1]; 1 μg/ml compound): 14.6%
Inhibitory effect of cell death by NMDA-induced excitable neurotoxicity ([1]; 2 μg/ml compound): 65.1%
inhibition at 67 µg/mL (thoracic aorta of rats): 38.5%
mortality rate [3]: 83(5/6) %
Induction percentage of convulsion [3]: 100(6/6) %
Initiation time of convulsion [3]: 16.1 ± 2.2 min
Duration of convulsion [3]: 36.6 ± 7.6 min

Cc1ccc(S(=O)(=O)N(CCCCNCCCn2c(=O)[nH]c3ccccc3c2=O)CCCn2c(=O)[nH]c3ccccc3c2=O)cc1 [Compound 40, N-[3-(2,4-dioxo-1,4-dihydro-2H-quinazolin-3-yl)propyl]-N-{4-[3-(2,4-dioxo-1,4-dihydro-2H-quinazolin-3-yl)propylamino]butyl}-4-methylbenzenesulfonamide]
IC50 (mouse brain cells): 31 ± 8.1 µg/mL (≈ 47.9 µM)
Inhibitory effect of cell death by NMDA-induced excitable neurotoxicity ([1]; 2 μg/ml compound): 34.5%
Increase of SOD activity, compared to control [2]: 8.3 ± 3.2
mortality rate [3]: 83(5/6) %
Induction percentage of convulsion [3]: 100(6/6) %
Initiation time of convulsion [3]: 11.2 ± 2.4 min
Duration of convulsion [3]: 42.3 ± 8.5 min
